The values that follow come from patent US7772188B2, “Methods and compositions for the treatment of gastrointestinal disorders” (priority 2003, dated 2010).

One data set deals with gastrointestinal transit. In words: Murine gastrointestinal transit (GIT) assay, charcoal front. It is filed as in vivo, mice. How it is done:
In order to determine whether the peptides increase the rate of gastrointestinal transit, the peptides and controls were tested using a murine gastrointestinal transit (GIT) assay (Moon et al. Infection and Immunity 25:127, 1979). In this assay, charcoal, which can be readily visualized in the gastrointestinal tract is administered to mice after the administration of a test compound. The distance traveled by the charcoal is measured and expressed as a percentage of the total length of the […].
Mice were fasted with free access to water for 12 to 16 hours before the treatment with peptide or control buffer. The peptides were orally administered at 1 μg/kg-1 mg/kg of peptide in buffer (20 mM Tris pH 7.5) 7 minutes before being given an oral dose of 5% Activated Carbon (Aldrich 242276-250G). Control mice were administered buffer only before being given a dose of Activated Carbon. After 15 minutes, the mice were sacrificed and their intestines from the stomach to the cecum were dissected. The total length of the intestine as well as the distance traveled from the stomach to the charcoal front was measured for each animal and the results are expressed as the percent of the total length of the intestine traveled by the charcoal front. All results are reported as the average of 10 mice±standard deviation. A comparison of the distance traveled by the charcoal between the mice treated with peptide versus the mice treated with vehicle alone was performed using a Student's t test and a statistically significant difference was considered for P<0.05. P-values are calculated using a two-sided T-Test assuming unequal variances.
The identical experiment was performed to determine if SEQ ID NO:3 is effective in a chronic dosing treatment regimen. Briefly, 8 week old CD1 female mice are dosed orally once a day for 5 days with either SEQ ID NO:3 (0.06 mg/kg or 0.25 mg/kg in 20 mM Tris pH 7.5) or vehicle alone (20 mM Tris pH 7.5). On the 5th day, a GIT assay is performed identical to that above except 200 μl of a 10% charcoal solution is administered. […] The results are shown side by side with acute dosing (1 day).

The test system of another data set is PBQ-induced writhing. In words: Phenylbenzoquinone (PBQ)-induced writhing model.
Data set [1] is described as follows: Bioavailability study in mice, serum detection by LCMS. In kind it is in vivo. Conditions: FIG. 10b. The procedure:
A similar bioavailability study was performed in which LCMS rather than ELISA was used to detect SEQ ID NO:3. Initially, serum samples were extracted from the whole blood of exposed and control mice, then injected directly ([…]) onto an in-line solid phase extraction (SPE) column (Waters Oasis HLB […] column, 2.0×15 mm direct connect) without further processing. The sample on the SPE column was washed with a 5% methanol, 95% dH2O solution (2.1 mL/min, 1.0 minute), then loaded onto an analytical column using a valve switch that places the SPE column in an inverted flow path onto the analytical column (Waters Xterra MS C8 5 mm IS column, 2.1×20 mm). The sample was eluted from the analytical column with a reverse phase gradient (Mobile Phase A: 10 mM ammonium hydroxide in dH2O, Mobile Phase B: 10 mM ammonium hydroxide in 80% acetonitrile and 20% methanol; 20% B for the first 3 minutes then ramping to 95% B over 4 min. and holding for 2 min., all at a flow rate of 0.4 mL/min.). At 9.1 minutes, the gradient returns to the initial conditions of 20% B for 1 min. SEQ ID NO:3 eluted from the analytical column at 1.45 minutes, and was detected by triple-quadrapole mass spectrometry (MRM, 764 (+2 charge state)>182 (+1 charge state) Da; cone voltage=30V; collision=20 eV; parent resolution=2 Da at base peak; daughter resolution=2 Da at base peak). […]

The next data set relates to intestinal secretion. In words: Suckling mouse model of intestinal secretion (SuMi assay). In kind it is in vivo. Conditions: suckling mice; dose response; FIG. 5a/5b. The procedure: In this model a test compound is administered to suckling mice that are between 7 and 9 days old. After the mice are sacrificed, the gastrointestinal tract from the stomach to the cecum is dissected (“guts”). The remains (“carcass”) as well as the guts are weighed and the ratio of guts to carcass weight is calculated. If the ratio is above 0.09, one can conclude that the test compound increases intestinal secretion. […] The effect of Zelnorm® was also studied.

The nature of data set [2]: Absorbability/bioavailability study in mice, serum detection by competitive ELISA. Conditions: FIG. 10a. It is filed as in vivo, CD1 mice. The procedure:
To study the pharmacokinetics of SEQ ID NO:3, absorbability studies in mice were performed by administering SEQ ID NO:3 intravaneously via tail vein injection or orally by gavage to 8-week-old CD1 mice. Serum was collected from the animals at various time points and tested for the presence of SEQ ID NO:3 using a competitive enzyme-linked immunoabsorbent assay (Oxoid, ST EIA kit, Cat#TD0700). The assay utilized monoclonal antibodies against ST peptide (antibodies are provided in the Oxoid kit) and synthetically manufactured SEQ ID NO:3.
(In general: An ELISA detects its analyte on a solid surface through an enzyme-linked reagent.)

Setting [3] is: CD1, mouse, serum, oral versus IV.

Positions of bridges follow the written chain, without caps; N, C: chain ends. Residues, ends and D or L forms follow the SMILES beside them.

For orientation: bioavailability means dose-corrected exposure relative to a reference, in per cent. Low values mean little systemic uptake, high ones much systemic uptake. In the case of `C[C@@H]1NC(=O)[C@@H]2CCCN2C(=O)[C@H](CC(N)=O)NC(=O)[C@@H]2CSSC[C@H](N)C(=O)N[C@H]3CSSC[C@H](NC1=O)C(=O)N[C@@H]([C@@H](C)O)C(=O)NCC(=O)N[C@H](C(=O)N[C@@H](Cc1ccc(O)cc1)C(=O)O)CSSC[C@H](NC(=O)[C@H](Cc1ccc(O)cc1)NC(=O)[C@H](CCC(=O)O)NC3=O)C(=O)N2` [SEQ ID NO:3, Cys Cys Glu Tyr Cys Cys Asn Pro Ala Cys Thr Gly Cys Tyr] (H-CCEYCCNPACTGCY-OH; disulfide 1-6, 2-10, 5-13; N-terminus and C-terminus assumed), the gastrointestinal transit rate result in the data set with gastrointestinal transit (acute, oral, mice, SEQ ID NO:4 and Zelnorm 0.1 mg/kg, FIG. 3a/3b) is “increase gastrointestinal transit rate”. In the data set on gastrointestinal transit (acute, oral, mice, chemically synthesized peptides, FIG. 4b), the “intestinal transit rate versus Tris buffer or equivalent dose of Zelnorm” value is given as “increase intestinal transit rates more than either Tris buffer alone or an equivalent dose of Zelnorm®”. The “effect in mouse gastrointestinal motility assay upon chronic dosing” value with gastrointestinal transit (oral once a day for 5 days, CD1 female mice, FIG. 4c) is on record as “effective”. In addition, in the data set with PBQ-induced writhing (mouse PBQ writhing, visceral pain model), the “antinociceptive effect relative to indomethacin” value is reported as “antinociceptive effects in this visceral pain model comparable to the intermediate doses of indomethacin”. Also, the “writhings compared to the vehicle control” value in the data set with PBQ-induced writhing (mouse, oral, 2.5 mg/kg dose, FIG. 8b) is “Significant reductions in writhings”. The bioavailability in data set [1] (setting [3]) is < 0.11%; in data set [2] (setting [3]), < 2.2%. Further, the systemic absorption result in data set [1] (oral) and in data set [2] (oral) was “minimally systemically absorbed” each time. The “intestinal secretion (guts to carcass weight ratio)” value in the data set on intestinal secretion is “increase intestinal secretion”.
